# Results published in publication PMC6214108, “Synthesis and In Vitro Antitumor Activity of Novel Bivalent β-Carboline-3-carboxylic Acid Derivatives with DNA as a Potential Target” (International Journal of Molecular Sciences, 2018).
# Experiments:
# calf thymus DNA (CT DNA) = experiment: UV-visible spectral study with CT DNA; format: binding; conditions: 10 μM compound, 200 nM CT DNA additions
# Description: UV-visible spectroscopy was carried out to determine the binding mode of β-carboline derivatives to DNA (CT DNA) using UV-2500 spectrophotometer (Shimadzu, Kyoto, Japan) at 25 °C. Stock solutions of 10 mM β-carboline derivatives were dissolved in DMSO, and 10 μM CT DNA was prepared in 100 mM KBPES buffer (30 mM Potassium Phosphate with 100 mM KCl, pH 7.0). UV-visible absorption titrations were performed by adding 200 nM CT DNA solution to the quartz cuvette containing approximately 10 μM derivative solutions. UV-Visible absorption spectra were recorded from 200 nm to 350 nm.
# Figure 5 UV-visible spectroscopy study of β-carbolines with calf thymus (CT) DNA. UV-visible absorption titrations were done by adding 200 nM CT DNA solution each time to the quartz cuvette containing 10 μM 4B, 6i, 4D, and 6u. The absorption spectra were recorded from 200 nm to 350 nm.
# [1] = test system: cytochrome C (Cyt C) in mitochondria; experiment: Western blot of cytochrome C in mitochondria; format: cell-based; conditions: A549, 2, 4, and 8 μM, 48 h
# Description: (§1) The level of cytochrome C (Cyt C) in mitochondria, and the expression of bcl-2 protein, were evaluated by western blot. A549 cells (1 × 10^6 cells per well) seeded into 6-well plates (JET, Guangzhou, China) were incubated with DMEM containing various concentrations (2, 4, and 8 μM) of β-carbolines (6i and 6u) for 48 h at 37 °C and 5% CO2. Then, the cells were lysed with RIPA lysis buffer for 30 min on ice (containing 1% PMSF), centrifuged at 12,000× g for 5 min at 4 °C, and then the supernatants were transferred to 1.5 mL EP tubes. Proteins were separated by sodium dodecyl sulfate-polyacrylamide gel electrophoresis (SDS-PAGE) and blotted on polyvinylidene difluoride (PVDF) membranes (Millipore, Burlington, MA, USA), as previously described. The membranes were blocked for 2 h at r.t. with 5% non-fat milk in TBST buffer (20 mM Tris-HCl,150 mM NaCl and 0.05% Tween-20, pH7.4), and then incubated with the mouse anti-bcl-2 monoclonal antibody (Sigma, Saint Louis, MO, USA), anti-cytochrome C monoclonal antibody (Beyotime, Haimen, China), and anti-β-actin antibody (1:4000 dilution; Abcam, Cambridge, MA, USA) overnight at 4 °C, and finally incubated with the peroxidase conjugated goat anti-mouse IgG (Jackson ImmunoResearch Laboratories, West Grove, PA, USA) at 37 °C for 1 h. […]
# bcl-2 protein = experiment: Western blot of bcl-2 protein; format: cell-based; conditions: A549, 2, 4, and 8 μM, 48 h
# Description: as §1
SMILES,Intercalation ability (UV-visible spectra with CT DNA) (calf thymus DNA (CT DNA)),"Level of Cyt C (in mitochondria), western blot [1]","Expression of bcl-2 protein, western blot (bcl-2 protein)"
COC(=O)c1cc2c3ccccc3n(Cc3ccccc3F)c2cn1 [Compound 4D],very weak,–,–
Cc1ccccc1Cn1c2ccccc2c2cc(C(=O)OCCCCCOC(=O)c3cc4c5ccccc5n(Cc5ccccc5C)c4cn3)ncc21 [Compound 6i],–,decreased in a dose-dependent manner,decreased in a dose-dependent manner
O=C(OCCCCCOC(=O)c1cc2c3ccccc3n(Cc3ccccc3F)c2cn1)c1cc2c3ccccc3n(Cc3ccccc3F)c2cn1 [Compound 6u],–,decreased in a dose-dependent manner,decreased in a dose-dependent manner
